Measured values from patent US9796753B2, “N-substituted indenoisoquinolines and syntheses thereof” (Purdue Research Foundation, priority 2005, dated 2017).
Read-outs that look alike come from different tables or passages of the source.

Columns and labels:
Assay type in all cases: cell-based
[1] = system: CNS SF-539; test: COMPARE screening (NCI human cancer cell line screen), cytotoxicity GI50
Procedure, shortened: (§1)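 Cells of the NCI60 panel were exposed to compound at 100, 10, 1, 0.1 and 0.01 μM for 48 h, then stained with sulforhodamine B. Optical density relative to control was plotted as percentage growth versus log10 concentration.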

[2] = system: colon HCT-116; test: as above
Procedure, shortened: as §1

[3] = system: lung HOP-62; test: as above
Procedure, shortened: as §1

[4] = system: melanoma UACC-62; test: as above
Procedure, shortened: as §1

[5] = system: ovarian OVCAR-3; test: as above
Procedure, shortened: as §1

[6] = system: prostate DU-145; test: as above
Procedure, shortened: as §1

[7] = system: renal SN12C; test: as above
Procedure, shortened: as §1

[8] = system: breast MDA-MB-435; test: as above
Procedure: COMPARE screening. The compounds described herein were examined for antiproliferative activity against the human cancer cell lines in the National Cancer Institute screen (COMPARE screening), in which the activity of each compound was evaluated with approximately 55 different cancer cell lines of diverse tumor origins. […] Therefore, the MGM value represents an overall assessment of toxicity of the compound across numerous cell lines.

[9] = system: all human cancer cell lines successfully tested; test: NCI screen mean graph midpoint (MGM) for growth inhibition
Procedure, shortened: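 NCI60 panel cells exposed to compound at 100, 10, 1, 0.1 and 0.01 μM for 48 h, then sulforhodamine B staining. Percentage growth versus control plotted against log concentration; MGM is the midpoint across all lines tested.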

[10] = CNS SF-539, concentration corresponding to 50% growth inhibition, read-out: cytotoxicity (GI50 in μM) CNS SF-539
[11] = colon HCT-116, concentration corresponding to 50% growth inhibition, read-out: cytotoxicity (GI50 in μM) colon HCT-116
[12] = lung HOP-62, concentration corresponding to 50% growth inhibition, read-out: cytotoxicity (GI50 in μM) lung HOP-62
[13] = melanoma UACC-62, concentration corresponding to 50% growth inhibition, read-out: cytotoxicity (GI50 in μM) melanoma UACC-62
[14] = ovarian OVCAR-3, concentration corresponding to 50% growth inhibition, read-out: cytotoxicity (GI50 in μM) ovarian OVCAR-3
[15] = prostate DU-145, concentration corresponding to 50% growth inhibition, read-out: cytotoxicity (GI50 in μM) prostate DU-145
[16] = renal SN12C, concentration corresponding to 50% growth inhibition, read-out: cytotoxicity (GI50 in μM) renal SN12C
[17] = breast MDA-MB-435, concentration corresponding to 50% growth inhibition, read-out: cytotoxicity (GI50 in μM) breast MDA-MB-435
[18] = all human cancer cell lines successfully tested

SMILES | GI50 [1, 10] | GI50 [2, 11] | GI50 [3, 12] | GI50 [4, 13] | GI50 [5, 14] | GI50 [6, 15] | GI50 [7, 16] | GI50 [8, 17] | MGM (mean GI50 across cell lines) [9, 18] | GI50 [1] | GI50 [2] | GI50 [3] | GI50 [4] | GI50 [5] | GI50 [6] | GI50 [7] | GI50 [8] | MGM (mean graph midpoint for growth inhibition) [9, 18] | MGM (mean graph midpoint for growth inhibition) ([9]; Table 1, average GI50 of all cell lines tested (approximately 55), test range 10^−8 to 10^−4 molar)
CC(C)(C)OC(=O)N(CCCN(CCn1c2c(c3ccccc3c1=O)C(=O)c1ccccc1-2)C(=O)OC(C)(C)C)CCn1c2c(c3ccccc3c1=O)C(=O)c1ccccc1-2 [Compound 13a, Bis-1,3-{(5,6-dihydro-5,11-diketo-11H-indeno[1,2-c]isoquinoline)-(6-ethyl-tert-BOCamino)}propane] | > 50.1 µM | 22.9 µM | 22.4 µM | > 50.1 µM | 21.4 µM | > 50.1 µM | > 50.1 µM | > 50.1 µM | 33.9 µM |  |  |  |  |  |  |  |  |  | 
CC(C)(C)OC(=O)N(CCCn1c2c(c3ccccc3c1=O)C(=O)c1ccccc1-2)CCN(CCCn1c2c(c3ccccc3c1=O)C(=O)c1ccccc1-2)C(=O)OC(C)(C)C [Compound 13b, Bis-1,2-{(5,6-dihydro-5,11-diketo-11H-indeno[1,2-c]isoquinoline)-(6-propyl-tert-BOCamino)}ethane] | > 50.1 µM | 14.1 µM | 20 µM | 45.7 µM | 13.2 µM | > 50.1 µM | 39.8 µM | > 50.1 µM | 28.2 µM |  |  |  |  |  |  |  |  |  | 
CC(C)(C)OC(=O)N(CCCCN(CCCn1c2c(c3ccccc3c1=O)C(=O)c1ccccc1-2)C(=O)OC(C)(C)C)CCCn1c2c(c3ccccc3c1=O)C(=O)c1ccccc1-2 [Compound 13d, Bis-1,4-{(5,6-dihydro-5,11-diketo-11H-indeno[1,2-c]isoquinoline)-(6-propyl-tert-BOCamino)}butane] | 8.13 µM | 1.91 µM | 11 µM | 93.3 µM | 69.2 µM | 47.9 µM | 36.3 µM | 69.2 µM | 35.5 µM |  |  |  |  |  |  |  |  |  | 
O=C(O)C(F)(F)F.O=C1c2ccccc2-c2c1c1ccccc1c(=O)n2CCCNCCn1c2c(c3ccccc3c1=O)C(=O)c1ccccc1-2 [Compound 14a, Bis{(5,6-dihydro-5,11-diketo-11H-indeno[1,2-c]isoquinoline)}-(6-ethyl,6′-propyl)ammonium Trifluoroacetate] |  |  |  |  |  |  |  |  | 5.25 µM | 14.5 µM | 1.05 µM | 0.977 µM | 5.01 µM | 8.91 µM | 1.91 µM | 11 µM | 2.24 µM |  | 
O=C(O)C(F)(F)F.O=C(O)C(F)(F)F.O=C1c2ccccc2-c2c1c1ccccc1c(=O)n2CCCN1CCN(CCCn2c3c(c4ccccc4c2=O)C(=O)c2ccccc2-3)CC1 [Compound 14f, Bis-1,4-{(5,6-dihydro-5,11-diketo-11H-indeno[1,2-c]isoquinoline)-6-propyl}piperazine Bis(trifluoroacetate)] |  |  |  |  |  |  |  |  |  | > 100 µM | 35.5 µM | 12.9 µM | > 100 µM | > 100 µM | 24 µM | 15.5 µM | > 100 µM | 44.8 ± 2.05 µM | 
COc1cc2c3c(n(CCNCCCNCCn4c5c(c6cc(OC)c(OC)cc6c4=O)C(=O)c4ccccc4-5)c(=O)c2cc1OC)-c1ccccc1C3=O.O=C(O)C(F)(F)F.O=C(O)C(F)(F)F [Compound 14k, Bis-1,3-{(5,6-dihydro-5,11-diketo-2,3-dimethoxy-11H-indeno[1,2-c]isoquinoline)-6-ethylamino}propane Bis{trifluoroacetate)] | 0.17 µM | 0.045 µM | 0.068 µM | 1.23 µM | 0.269 µM | 0.209 µM | 0.028 µM | 0.813 µM | 0.562 µM |  |  |  |  |  |  |  |  |  | 
COc1cc2c3c(n(CCCNCCCNCCCn4c5c(c6cc(OC)c(OC)cc6c4=O)C(=O)c4ccccc4-5)c(=O)c2cc1OC)-c1ccccc1C3=O.O=C(O)C(F)(F)F.O=C(O)C(F)(F)F [Compound 14l, Bis-1,3-{(5,6-dihydro-5,11-diketo-2,3-dimethoxy-11H-indeno[1,2-c]isoquinoline)-6-propylamino}propane Bis{trifluoroacetate)] | 4.17 µM | 0.331 µM | 1.51 µM | 4.27 µM | 9.55 µM | 19.5 µM | 0.24 µM | 3.98 µM | 6.03 µM |  |  |  |  |  |  |  |  |  | 
O=C(O)C(F)(F)F.O=C(O)C(F)(F)F.O=C1c2ccccc2-c2c1c1ccc([N+](=O)[O-])cc1c(=O)n2CCNCCCNCCn1c2c(c3ccc([N+](=O)[O-])cc3c1=O)C(=O)c1ccccc1-2 [Compound 14m, Bis-1,3-{(5,6-dihydro-5,11-diketo-3-nitro-11H-indeno[1,2-c]isoquinoline)-6-ethylamino}propane Bis{trifluoroacetate)] | 0.324 µM | 0.044 µM | 0.631 µM | 0.603 µM | 0.245 µM | 0.813 µM | 0.123 µM | 0.437 µM |  |  |  |  |  |  |  |  |  | 0.354 ± 0.184 µM | 
O=C(O)C(F)(F)F.O=C(O)C(F)(F)F.O=C1c2ccccc2-c2c1c1ccc([N+](=O)[O-])cc1c(=O)n2CCCNCCCNCCCn1c2c(c3ccc([N+](=O)[O-])cc3c1=O)C(=O)c1ccccc1-2 [Compound 14n, Bis-1,3-{(5,6-dihydro-5,1-diketo-3-nitro-11H-indeno[1,2-c]isoquinoline)-6-propylamino}propane Bis{trifluoroacetate)] | 1.17 µM | 1.45 µM | 3.02 µM | 1.78 µM | 2.29 µM | 0.912 µM | 1.17 µM | 3.89 µM |  |  |  |  |  |  |  |  |  | 1.50 ± 0.24 µM | 
O=C1c2ccccc2-c2c1c1ccccc1c(=O)n2CCNCCO [Compound S-2, oracin, reference compound] |  |  |  |  |  |  |  |  |  | 1.65 µM | 1.12 µM | 1.62 µM | 1.42 µM | 3.85 µM | 1.28 µM | 0.95 µM | 2.56 µM |  | 1.90 ± 0.80 µM
NCCCn1c2c(c3ccccc3c1=O)C(=O)c1ccccc1-2 [Compound S-3, 5,6-dihyro-6-(3-amino-1-propyl)-5,11-dioxo-11H-indeno[1,2,c]isoquinoline, reference compound] |  |  |  |  |  |  |  |  |  | 0.25 µM | 0.18 µM | 0.2 µM | 0.26 µM | 1.38 µM | 0.22 µM | 0.16 µM | 0.78 µM | 0.32 ± 0.23 µM | 
